Results: patent US12319913B2, “5-halouracil-modified microRNAs and their use in the treatment of cancer” (The Research Foundation for The State University of New York, priority 2018, dated 2025)

Experiments:
[1] = tested on: MDA-MB-231 breast cancer cells; experiment: Cell cycle analysis, MDA-MB-231 breast cancer cells; format: cell-based, human; conditions: compared to native exogenous microRNAs or NC
Description: Cell cycle analysis: Twenty-four hours after transfection, cells were harvested and resuspended at 0.5 to 1×10^6 cells/mL in modified Krishan's buffer supplemented with 0.02 mg/mL RNase H and 0.05 mg/mL propidium iodide. Stained cells were detected by flow cytometry and results were analyzed with Modfit LT™ software. The experiments for cell cycle analysis were performed at least three times.

[2] = tested on: MDA-MB-231 triple negative breast cancer cells; experiment: MTT cell proliferation, MDA-MB-231, with or without oligofectamine; format: cell-based, human
Description: For transfections, 1×10^5 cells were plated in six-well plates and transfected with 100 nM of control non-specific miRNA (Thermo Fischer), a modified microRNA, or exogenous native microRNA after 24 hours using Oligofectamine (Thermo Fischer) following the manufacturer's protocols. For reagent free transfection, cells were plated in 6 well plates at (1×10^5) cells per well. Twenty-four hours later 100 pmol miRNA (Control, miR-15a, Mimic-1) were diluted in Optimem (Thermo Fischer) and added to the plate. Media was changed after 24 hours. Media was supplemented with 10% fetal bovine serum (Thermo Fischer). Briefly, cells were cultured in growth media (DMEM/F12 supplemented with B27, 10 ng/mL bFGF, and 20 ng/mL EGF (Life Technologies) in ultra-low attachment flasks) for up to 6 days. The spheroid cells were maintained by collection through gentle centrifugation, dissociation to single cells and replating.
Furthermore, to test whether or not the modified microRNAs of the present disclosure can be delivered directly to cells and taken up by the cancer cells without the use of transfer agents or vehicles (i.e., oligofectamine), MDA-MB-231 triple negative breast cancer cells were transfected with miR-NC (negative control), exogenous unmodified miR-200b or miR-489, 5-FU-miR-200b or modified miR-489 by using oligofectamine or without delivery vehicle. As shown in FIGS. 17A-17B and 20A, the effects of expression of the exemplary modified miRs tested on breast cancer cell proliferation were monitored by MTT assay for 6 days upon transfection or incubation.

TS-FdUMP = target: T1, TS-FdUMP (Homo sapiens, UniProt P04818); experiment: Western blot of TS / TS-FdUMP in MDA-MB-231 cells; format: cell-based; conditions: breast cancer cells, FIG. 21B
T1 construct: endogenous in cells
Description: (§1) Western immunoblot analysis: Forty-eight hours after transfection, equal amounts of protein (15 μg) extracted from cells lysed in RIPA buffer with protease inhibitor (Sigma) and were separated on 10%-12% sodium dodecyl sulfate-polyacrylamide gels using standard procedures. The primary antibodies used for the analysis were rabbit anti-YAP1 monoclonal antibody (1:10000) (Cell Signaling Technologies), anti-DLCK1 (1:500) (Abcam), anti-BCL2 (1:500) (NeoMarkers), anti-MDC1 (1:500), anti-SUZ12 (1:500), anti-pChk-1 (1:500), anti beta-actin (1:500), anti-BMI-1 (1:10000) (Cell Signaling Technologies), mouse anti-human TS antibody (1:500), anti-α-tubulin (1:50000) (Santa Cruz Biotech Inc.), anti-GAPDH (1:100000) (Santa Cruz Biotech Inc.), anti-E2F3 (1:500) (Santa Cruz Biotech Inc.), Horseradish peroxidase-conjugated antibodies against mouse or rabbit (1:5000, Santa Cruz Biotech Inc.) were used as the secondary antibodies. Protein bands were visualized with autoradiography film using SuperSignal West Pico Chemiluminescent Substrate (Thermo Fischer). Western blot density was quantified using Image J software.

MDC1 and SUZ12 = experiment: Western blot of MDC1 and SUZ12 in triple negative breast cancer cells; format: cell-based, human
Description: as §1

[3] = tested on: MDA-MB-231 breast cancer cells; experiment: Triple negative breast cancer xenograft mouse model (MDA-MB-231, tail vein); format: in vivo; conditions: intravenous, every other day for 17 days, vs negative control and native miR-489
Description: Modified miR-489 inhibits breast cancer development and progression in vivo. A triple negative breast cancer xenograft mouse model was developed by tail vein injection of MDA-MB-231 breast cancer cells and tumors were developed over time. Mice were then injected with modified miR-489 composition having the nucleotide sequence set forth in SEQ ID NO: 32, exogenous native miR-489, or negative control miRNA by intravenous injection with treatment frequency of one injection every other day for 17 days and mice were euthanized and tumors size was measured using imaging techniques.

T1 sequence (P04818 2-313 limits assumed): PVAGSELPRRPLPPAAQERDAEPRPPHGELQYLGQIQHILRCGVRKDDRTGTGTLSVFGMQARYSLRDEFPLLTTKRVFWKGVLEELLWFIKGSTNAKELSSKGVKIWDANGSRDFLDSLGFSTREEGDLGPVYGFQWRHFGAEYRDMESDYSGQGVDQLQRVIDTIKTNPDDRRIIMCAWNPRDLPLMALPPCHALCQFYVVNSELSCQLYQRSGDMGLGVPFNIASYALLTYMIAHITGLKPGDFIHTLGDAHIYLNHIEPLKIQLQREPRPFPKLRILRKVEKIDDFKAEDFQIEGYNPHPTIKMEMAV

CGACGGCAU^FAU^FACACU^FACAGU^FG (CGACGGCAUAUACACUACAGUG; 5-fluorouracil replacing uracils, chemistry not fully specified) [modified miR-489]
sub G1 and G1/S ratio [1]: significantly increase
cell proliferation without delivery vehicle (no oligofectamine) ([2]; MDA-MB-231, MTT assay): effectively reduced cell proliferation
cell proliferation in the presence of oligofectamine ([2]; MDA-MB-231, MTT assay for 6 days, vs miR-NC): dramatically reduced the cell growth from day 3
expression of TS protein (TS-FdUMP): reduces the expression, and thus activity of TS protein
MDC1 and SUZ12 protein expression without a transfection reagent (MDC1 and SUZ12; MDA-MB-231, no oligofectamine): inhibits MDC1 and SUZ12 protein expression
MDC1 and SUZ12 protein expression (MDC1 and SUZ12; triple negative breast cancer cells, western blot): further reduction of SUZ12 and MDC1
tumor size [3]: drastic reduction in tumor size
